The data set deals with GENE-TOX genotoxicity assays, various organisms and cells. In words: GENE-TOX mutagenicity studies.
Setting [1] is: Species/Cell Type: Neurospora crassa, Assay Type: Reverse gene mutation, Assay Code: NER+, Evaluation Type: Evaluation A (Pre-1980).
Setting [2] is: Species/Cell Type: Human, Assay Type: Sister-chromatid exchange (SCE) in vitro, Assay Code: SC1+, Evaluation Type: Evaluation B (Post-1980).
Where [3] appears, read: Species/Cell Type: Salmonella typhimurium (one or more of the five standard strains: TA98, TA100, TA1535, TA1537, and TA1538), Assay Type: Histidine reverse gene mutation, Ames assay, Assay Code: SAL+, Evaluation Type: Evaluation A (Pre-1980).
[4] abbreviates: Species/Cell Type: Fischer rat embryo (RLV/1706) cells, Assay Type: Cell transformation, viral enhanced, Assay Code: CTR-, Evaluation Type: Evaluation A (Pre-1980).
Where [5] appears, read: Species/Cell Type: Mammalian polychromatic erythrocytes, Assay Type: Micronucleus test, chromosome aberrations, Assay Code: MNT+, Evaluation Type: Evaluation B (Post-1980).
Where [6] appears, read: Species/Cell Type: Mouse, Sex: Male, Assay Type: Sperm morphology, Assay Code: SPI-, Evaluation Type: Evaluation A (Pre-1980).
Setting [7] is: Species/Cell Type: Escherichia coli polA (W3119 vs P3478), Assay Type: Rec-assay, DNA effects (bacterial DNA repair), Assay Code: RE1T, Evaluation Type: Evaluation A (Pre-1980).
[8] abbreviates: Species/Cell Type: Salmonella typhimurium (one or more of the five standard strains: TA98, TA100, TA1535, TA1537, and TA1538), Assay Type: Histidine reverse gene mutation, Ames assay, Assay Code: SAL-, Evaluation Type: Evaluation A (Pre-1980).

Active and inactive are the calls of the source. How the calls were made is not given here.

With `O=[N+]([O-])c1ccc(Oc2c(Cl)cc(Cl)cc2Cl)cc1`, the mutagenic call (Species/Cell Type: Mammalian polychromatic erythrocytes, Assay Type: Micronucleus test, chromosome aberrations, Assay Code: MNTT, Evaluation Type: Evaluation A (Pre-1980)) was “no conclusion”.

Turning to `CN(C)CCOc1ccc2c(c1)CC/C(=C\c1ncc([N+](=O)[O-])n1C)C2=O`, the mutagenic call was “active; positive” (Species/Cell Type: Neurospora crassa, Assay Type: Forward gene mutation, Assay Code: NEF+, Evaluation Type: Evaluation A (Pre-1980)) and “active; positive” under setting [1].

With `Nc1nc2c(ncn2[C@H]2C[C@H](O)[C@@H](CO)O2)c(=O)[nH]1`, the mutagenic call (Species/Cell Type: Glycine max (soybean), Assay Type: Gene mutation, Assay Code: GLM-, Evaluation Type: Evaluation A (Pre-1980)) is “inactive; negative”.

As to `CCC(=O)Oc1ccc(/C(CC)=C(\CC)c2ccc(OC(=O)CC)cc2)cc1`, the mutagenic call is “active; positive” (Species/Cell Type: Human lymphocytes, Assay Type: Sister-chromatid exchange (SCE) in vitro, Assay Code: SCL+, Evaluation Type: Evaluation B (Post-1980)); “active; positive” under setting [2]; “no conclusion” (Species/Cell Type: Nonhuman, Assay Type: Sister-chromatid exchange (SCE) in vivo, Assay Code: SC3T, Evaluation Type: Evaluation B (Post-1980)); “active; positive” (Species/Cell Type: Saccharomyces cerevisiae, Assay Type: Aneuploidy, chromosome aberrations, Assay Code: YEN+, Evaluation Type: Evaluation A (Pre-1980)).

As for `CC(C)(c1ccc(O)cc1)c1ccc(O)cc1` (tested in a mixture with another compound), the mutagenic call under setting [3] was “active; positive”.

With `C=C(C)[C@@H]1CCC(C)=C[C@H]1c1c(O)cc(CCCCC)cc1O`, the mutagenic call under setting [4] is “inactive; negative”; the mutagenic call (Species/Cell Type: Human lymphocytes, Assay Type: Sister-chromatid exchange (SCE) in vivo, Assay Code: SCY+, Evaluation Type: Evaluation B (Post-1980)) was “active; positive”; the mutagenic call under setting [5] is “active; positive”; the mutagenic call under setting [6] is “inactive; negative”.

With `O=C(O)CC(O)(CC(=O)O)C(=O)O`, the mutagenic call under setting [5] is “active; positive”.

With `Cc1cc(C)c(C)c(OC(=O)N(C)N=O)c1`, under setting [3], the mutagenic call is “active; positive”.

For the molecule `CCCC(C)(C)C(=O)Nc1ccc(Cl)cc1`, for the setting “Species/Cell Type: Saccharomyces cerevisiae, Assay Type: Mitotic recombination or gene conversion, Assay Code: YEC-, Evaluation Type: Evaluation A (Pre-1980)”, the mutagenic call is “inactive; negative”.

On to `CC(=O)Nc1ccc(OCC(O)CNC(C)C)cc1` (stereo not drawn), for which the mutagenic call by setting is: (Species/Cell Type: Mammalian polychromatic erythrocytes, Assay Type: Micronucleus test, chromosome aberrations, Assay Code: MNTT, Evaluation Type: Evaluation B (Post-1980)) “no conclusion”; under setting [6], “inactive; negative”.

With `CCCCCCCCCCCCCC(=O)O[C@@H]1[C@@H](C)[C@@]2(O)[C@@H](C=C(CO)C[C@]3(O)C(=O)C(C)=C[C@@H]23)[C@@H]2C(C)(C)[C@]12OC(C)=O`, the mutagenic call by setting is: (Species/Cell Type: Chinese hamster lung (V79) cells, Assay Type: Forward gene mutation at the HPRT or ouabain locus, Assay Code: V79-, Evaluation Type: Evaluation A (Pre-1980)) “inactive; negative”; under setting [7], “no conclusion”; under setting [4], “inactive; negative”; under setting [2], “active; positive”; (Species/Cell Type: Mouse (C3H/10T1/2) cells, Assay Type: Cell transformation, Assay Code: CTH-, Evaluation Type: Evaluation A (Pre-1980)) “inactive; negative”; (Species/Cell Type: Nonhuman, Assay Type: Sister-chromatid exchange (SCE) in vitro, Assay Code: SC2+, Evaluation Type: Evaluation A (Pre-1980)) “active; positive”. Also, the mutagenic call reads like this: (Species/Cell Type: Nonhuman, Assay Type: Sister-chromatid exchange (SCE) in vitro, Assay Code: SC2T, Evaluation Type: Evaluation B (Post-1980)) “no conclusion”; (Species/Cell Type: Saccharomyces cerevisiae, Assay Type: Mitotic recombination or gene conversion, Assay Code: YEH-, Evaluation Type: Evaluation A (Pre-1980)) “inactive; negative”; under setting [8], “inactive; negative”; (Species/Cell Type: Syrian hamster embryo (SHE) cells, Assay Type: Cell transformation, clonal assay, Assay Code: CTC-, Evaluation Type: Evaluation A (Pre-1980)) “inactive; negative”.

`CCOC(N)=O`: the mutagenic call is, setting by setting: (Species/Cell Type: Drosophila melanogaster, Assay Type: Aneuploidy, sex chromosome gain, chromosome aberrations, Assay Code: DAG-M, Evaluation Type: Evaluation A (Pre-1980)) “inactive; negative”; (Species/Cell Type: Drosophila melanogaster, Assay Type: Aneuploidy, whole sex chromosome loss, chromosome aberrations, Assay Code: DAC+M, Evaluation Type: Evaluation A (Pre-1980)) “active; positive”; (Species/Cell Type: Drosophila melanogaster, Assay Type: Sex-linked recessive lethal gene mutation, Assay Code: SRL+, Evaluation Type: Evaluation A (Pre-1980)) “active; positive”; (Species/Cell Type: Drosophila melanogaster, Sex: Male, Assay Type: Heritable translocation test, chromosome aberrations, Assay Code: DHT+, Evaluation Type: Evaluation A (Pre-1980)) “active; positive”; (Species/Cell Type: Escherichia coli WP2, Assay Type: Tryptophan reverse gene mutation, Assay Code: WP2-, Evaluation Type: Evaluation A (Pre-1980)) “inactive; negative”; (Species/Cell Type: Escherichia coli polA (W3110 vs P3478), Assay Type: Rec-assay, DNA effects (bacterial DNA repair), Assay Code: RE2-, Evaluation Type: Evaluation A (Pre-1980)) “inactive; negative”. The mutagenic call is “no conclusion” under setting [7]; “active; positive” (Species/Cell Type: Fischer rat embryo (RLV/1706) cells, Assay Type: Cell transformation, viral enhanced, Assay Code: CTR+, Evaluation Type: Evaluation A (Pre-1980)); “no conclusion” (Species/Cell Type: Human diploid fibroblasts, Assay Type: Unscheduled DNA synthesis (UDS) in vitro, DNA effects, Assay Code: UDHT, Evaluation Type: Evaluation A (Pre-1980)); “active; positive” (Species/Cell Type: Human lymphocytes, Assay Type: Sister-chromatid exchange (SCE) in vitro, Assay Code: SCL+D, Dose Response: With dose response, Evaluation Type: Evaluation B (Post-1980)); “active; positive” (Species/Cell Type: Human, Assay Type: Sister-chromatid exchange (SCE) in vitro, Assay Code: SC1+D, Dose Response: With dose response, Evaluation Type: Evaluation B (Post-1980)); “active; positive” (Species/Cell Type: Mammalian polychromatic erythrocytes, Assay Type: Micronucleus test, chromosome aberrations, Assay Code: MNT+, Evaluation Type: Evaluation A (Pre-1980)). In addition, the mutagenic call runs as follows: (Species/Cell Type: Mouse embryo (AKR/ME) cells, Assay Type: Cell transformation, Assay Code: CTK+, Evaluation Type: Evaluation A (Pre-1980)) “active; positive”; under setting [6], “inactive; negative”; under setting [1], “active; positive”; (Species/Cell Type: Nonhuman, Assay Type: Sister-chromatid exchange (SCE) in vitro, Assay Code: SC2+D, Dose Response: With dose response, Evaluation Type: Evaluation A (Pre-1980)) “active; positive”; (Species/Cell Type: Nonhuman, Assay Type: Sister-chromatid exchange (SCE) in vivo, Assay Code: SC3+D, Dose Response: With dose response, Evaluation Type: Evaluation B (Post-1980)) “active; positive”; (Species/Cell Type: Saccharomyces cerevisiae, Assay Type: Mitotic recombination or gene conversion, Assay Code: YEC+, Evaluation Type: Evaluation A (Pre-1980)) “active; positive”. Besides, the mutagenic call was “inactive; negative” (Species/Cell Type: Saccharomyces cerevisiae, Assay Type: Mitotic recombination or gene conversion, Assay Code: YEH-*, Activation: With metabolic activation, Evaluation Type: Evaluation A (Pre-1980)); “inactive; negative” under setting [8]; “inactive; negative” (Species/Cell Type: Salmonella typhimurium, Assay Type: Forward and reverse gene mutation, host-mediated assay, Assay Code: HMA-, Evaluation Type: Evaluation A (Pre-1980)); “active; positive” (Species/Cell Type: Syrian hamster embryo (SHE) cells, Assay Type: Cell transformation, clonal assay, Assay Code: CTC+*, Activation: With metabolic activation, Evaluation Type: Evaluation A (Pre-1980)). In addition, under “Species/Cell Type: Nonhuman, Assay Type: In vivo carcinogenicity studies, Assay Code: CCG+, Evaluation Type: Evaluation A (Pre-1980)”, the call is “active; positive”.

With `O=C(NO)c1cc2ccccc2[nH]1`, under setting [3], the mutagenic call is “active; positive”.

With `N#Cc1ccc2ccccc2c1`, the mutagenic call (Species/Cell Type: Allium cepa, Assay Type: Chromosome aberrations, Assay Code: ALC+D, Dose Response: With dose response, Evaluation Type: Evaluation A (Pre-1980)) is “active; positive”.

Source of the values: PubChem BioAssay AID1259408 (Genetic Toxicology Data Bank (GENE-TOX), 2018).
